pEC50, pIC50: −log10 of the molar value. Where two headings read alike, the source gives them in different places.
Columns and labels:
[1] = Cytotoxicity in HepG2.2.15 cells (CellTiter Glo); type: cell-based; conditions: human, highest concentration 150 μM
Procedure: (§1) Test 2: Cytotoxicity and Selectivity Index
(§2) Methods of Testing Cytotoxicity and Selectivity Index
(§3) The serial diluted compound was added to a 384 wells plate at 50 μL HepG2.2.15 cell per well (3000 cells per well), the highest final concentration in the experiment is 150 μM (200 fold dilution). The plate was cultured at 37° C. in an incubator with C02 for 4 days, and cytotoxicity of the compound was detected using CellTiter Glo agent.
(§4) The cytotoxicity of the compound was calculated using the following formulate, cytotoxicity (%)=100−(detection value/mean of DMSO control wells values×100). CC50 values were calculated by a four parametric nonlinear regression model using Graphpad Prism 5 software to manage concentration−cytotoxicity (%). […]

HBV [2] = test: Anti HBV activity in vitro, viral DNA from HepG2.2.15 cells quantified by qPCR; type: cell-based; conditions: qPCR of viral DNA in supernatant, read-out: EC50 against HBV replication
Procedure: Test 1: Test Method of EC50 of Anti HBV
HBV Cell Line and Culture Conditions
HepG2.2.15 (SELLS, PNAS, 1987 and SELLS, JV, 1988) chromosomes have an integrated complete HBV genome, and stably express viral RNA and viral protein. HepG2.2.15 cells can secrete mature HBV particles, HBsAg and HBeAg to medium. HepG2.2.15 cells were cultured in DMEM containing 10% fetal bovine serum, 100 U/mL penicillin, 100 U/mL streptomycin, 1% non essential amino acid, 1 mM sodium pyruvate and 300 µg/mL G418.
Viral particles DNA secreted from HepG2.2.15 cells can be quantified by qPCR, and the effect of the compound on viral replication can be detected.
Test of Anti HBV Activity In Vitro
8000 HepG 2.2.15 cells per well were seeded into a 96-well plate, the plate was cultured at 37° C. and 5% CO2 for 3 days till the cells grew to full wells. Old liquid medium can be removed and replaced with new medium (200 μL) on day 0.
Formulating the compound and treating the cells in the experiment of anti virus: the compound was dissolved in DMSO to a concentration of 30 mM, and then the compound solution was diluted with DMSO to a concentration of […], and then eight dilutions at 4 fold were performed, the highest concentration is 800 μM. The serial diluted compound was added to the above plate at 1 μL per well, the highest final concentration in the experiment is 4 μM (200 fold dilution). TDF (tenofovir dipiroxil fumarate, Selleck, Cat S1400) has a highest concentration of 4 μM as a positive control. 1 μL of DMSO was added in to the positive control well at a final concentration of 0.5%, TDF was added in to the positive control well at a final concentration of 1 μM.
Detection of Viral Genomic DNA by qPCR
Primer: HBV-For-202, […]; HBV-Rev-315, […]. Copies of virus can be calculated using a standard curve plotted by using plasmid containing HBV genome and using SYBR Premix Ex Taq II Takara DRR081S kit and 1 μL cell culture supernatant as a template. EC50 values of the compound on viral replication were calculated by a four parametric nonlinear regression model using Graphpad Prism 5 software to manage concentration—viral copy number.

PK test on SD rats = type: in vivo; conditions: for AUC(0-inf) / AUC(0-t) / Tmax: male, rat, plasma
Procedure: The PK test method of the compound in vivo of SD rats (purchased from Hunan slack Jing Da laboratory animal Co., Ltd, weight: […] male, ages of 2-3 months, 3 per oral group, 3 per intravenous injection group):
The Rats were administered intragastrically with the test compound at doses of 2.5 mg/kg or 5 mg/kg or administered intravenously with the test compound at doses of 1 mg/kg.
Blood samples were taken at 0.083, 0.25, 0.5, 1, 2, 5, 7 and 24 hours from vein after the administration, and collected in anticoagulation tube with EDTA-K2. The test compounds were extracted from plasma samples by liquid-liquid extraction. Then quantitative analysis was performed on a triple-quadrupole tandem mass spectrometer using multiple reaction monitoring (MRM). Pharmacokinetic parameters were calculated using a noncompartmental method by WinNonLin 6.3 software.

HBV [3] = conditions: Science, 2003, 299, 893-896; cited from earlier work
HepG2.2.15 cells = test: Cytotoxicity in HepG2.2.15 cells (CellTiter Glo); type: cell-based; conditions: 4 days, highest concentration 150 μM
Procedure: as §1, §2, §3, §4

COC(=O)C1=C(CN2CCN3C(=O)N(c4ccc(CC(C)(C)C(=O)O)cc4)C[C@@H]3C2)NC(c2nccs2)=N[C@H]1c1ccc(F)cc1Cl [Example 17, 3-(4-((S)-7-(((R)-6-(2-chloro-4-fluorophenyl)-5-(methoxycarbonyl)-2-(thiazol-2-yl)-3,6-dihydropyrimidin-4-yl)methyl)-3-oxohexahydroimidazo[1,5-a]pyrazin-2(3H)-yl)phenyl)-2,2-dimethylpropionic Acid]
CC50 at 4 days [1]: > 150000 nM
pEC50 (HBV [2]; Hepatitis B virus): 8.40
AUC(0-inf) (PK test on SD rats; iv, 1 mg/kg): 979 ng·h/mL
AUC(0-t) (PK test on SD rats; iv, 1 mg/kg): 977 ng·h/mL
Tmax (PK test on SD rats; iv, 1 mg/kg): 4.98 min
AUC(0-inf) (PK test on SD rats; po, 5 mg/kg): 5580 ng·h/mL
AUC(0-t) (PK test on SD rats; po, 5 mg/kg): 4710 ng·h/mL
Tmax (PK test on SD rats; po, 5 mg/kg): 60 min
F (PK test on SD rats; po, 5 mg/kg): 114.1%

COC(=O)C1=C(CN2CCN3C(=O)N(c4ccc(CCC(=O)O)cc4)C[C@@H]3C2)NC(c2nccs2)=N[C@H]1c1ccc(F)cc1Cl [Example 13, 3-(4-((S)-7-(((R)-6-(2-chloro-4-fluorophenyl)-5-(methoxycarbonyl)-2-(thiazol-2-yl)-3,6-dihydropyrimidin-4-yl)methyl)-3-oxohexahydroimidazo[1,5-a]pyrazin-2(3H)-yl)phenyl)propionic Acid]
CC50 at 4 days [1]: > 150000 nM
pEC50 (HBV [2]; Hepatitis B virus): 8.40
AUC(0-inf) (PK test on SD rats; iv, 1 mg/kg): 1320 ng·h/mL
AUC(0-t) (PK test on SD rats; iv, 1 mg/kg): 1320 ng·h/mL
Tmax (PK test on SD rats; iv, 1 mg/kg): 4.98 min
AUC(0-inf) (PK test on SD rats; po, 5 mg/kg): 3080 ng·h/mL
AUC(0-t) (PK test on SD rats; po, 5 mg/kg): 3050 ng·h/mL
Tmax (PK test on SD rats; po, 5 mg/kg): 30 min
F (PK test on SD rats; po, 5 mg/kg): 31.2%

COC(=O)C1=C(CN2CCN3C(=O)N(c4ccc(CC(=O)O)cc4)C[C@@H]3C2)NC(c2nccs2)=N[C@H]1c1ccc(F)cc1Cl [Example 14, 2-(4-((S)-7-(((R)-6-(2-chloro-4-fluorophenyl)-5-(methoxycarbonyl)-2-(thiazol-2-yl)-3,6-dihydropyrimidin-4-yl)methyl)-3-oxohexahydroimidazo[1,5-a]pyrazin-2(3H)-yl)phenyl)acetic Acid]
CC50 at 4 days [1]: > 150000 nM
pEC50 (HBV [2]; Hepatitis B virus): 8.15
AUC(0-inf) (PK test on SD rats; iv, 1 mg/kg): 684 ng·h/mL
AUC(0-t) (PK test on SD rats; iv, 1 mg/kg): 680 ng·h/mL
Tmax (PK test on SD rats; iv, 1 mg/kg): 4.98 min
AUC(0-inf) (PK test on SD rats; po, 5 mg/kg): 2250 ng·h/mL
AUC(0-t) (PK test on SD rats; po, 5 mg/kg): 2250 ng·h/mL
Tmax (PK test on SD rats; po, 5 mg/kg): 30 min
F (PK test on SD rats; po, 5 mg/kg): 44%

COC(=O)C1=C(CN2CCN3C(=O)N(c4ccc(C(C)CC(=O)O)cc4)C[C@@H]3C2)NC(c2nccs2)=N[C@H]1c1ccc(F)cc1Cl (stereo partly drawn) [Example 19, 3-(4-((S)-7-(((R)-6-(2-chloro-4-fluorophenyl)-5-(methoxycarbonyl)-2-(thiazol-2-yl)-3,6-dihydropyrimidin-4-yl)methyl)-3-oxohexahydroimidazo[1,5-a]pyrazin-2(3H)-yl)phenyl) butanoic Acid]
CC50 at 4 days [1]: > 150000 nM
pEC50 (HBV [2]; Hepatitis B virus): 8.52
AUC(0-inf) (PK test on SD rats; iv, 1 mg/kg): 5520 ng·h/mL
AUC(0-t) (PK test on SD rats; iv, 1 mg/kg): 5520 ng·h/mL
Tmax (PK test on SD rats; iv, 1 mg/kg): 4.98 min
AUC(0-inf) (PK test on SD rats; po, 5 mg/kg): 20300 ng·h/mL
AUC(0-t) (PK test on SD rats; po, 5 mg/kg): 20300 ng·h/mL
Tmax (PK test on SD rats; po, 5 mg/kg): 30 min
F (PK test on SD rats; po, 5 mg/kg): 73.4%

Nc1ccn([C@@H]2CS[C@H](CO)O2)c(=O)n1 [lamivudine]
pIC50 (HBV [3]): 6.52

COC(=O)C1=C(CN2CCN3C(=O)N(c4ccc(C(C)=O)cc4)C[C@@H]3C2)NC(c2nccs2)=N[C@H]1c1ccc(F)cc1Cl [Example 31, (R)-methyl 6-(((S)-2-(4-acetylphenyl)-3-oxohexahydroimidazo[1,5-a]pyrazin-7(1H)-yl)methyl)-4-(2-chloro-4-fluorophenyl)-2-(thiazol-2-yl)-1,4-dihydropyrimidine-5-carboxy late]
CC50 at 4 days [1]: > 150000 nM
pEC50 (HBV [2]; Hepatitis B virus): 8.40

COC(=O)C1=C(CN2CCN3C(=O)N(c4ccc(/C=C(\C)C(=O)O)cc4)C[C@@H]3C2)NC(c2nccs2)=N[C@H]1c1ccc(F)cc1Cl [Example 53, (E)-3-(4-((S)-7-(((R)-6-(2-chloro-4-fluorophenyl)-5-(methoxycarbonyl)-2-(thiazol-2-yl)-3,6-dihydropyrimidin-4-yl)methyl)-3-oxohexahydroimidazo[1,5-a]pyrazin-2(3H)-yl)phenyl)-2-methylacrylic Acid]
CC50 at 4 days [1]: > 150000 nM
pEC50 (HBV [2]; Hepatitis B virus): 7.85

COC(=O)C1=C(CN2CCN3C(=O)N(c4cccc(CC(=O)O)c4)C[C@@H]3C2)NC(c2nccs2)=N[C@H]1c1ccc(F)cc1Cl [Example 39, 2-(3-((S)-7-(((R)-6-(2-chloro-4-fluorophenyl)-5-(methoxycarbonyl)-2-(thiazol-2-yl)-3,6-dihydropyrimidin-4-yl)methyl)-3-oxohexahydroimidazo[1,5-a]pyrazin-2(3H)-yl)phenyl) acetic Acid]
CC50 at 4 days [1]: > 150000 nM
pEC50 (HBV [2]; Hepatitis B virus): 7.54

COC(=O)C1=C(CN2CCN3C(=O)N(c4ccc(C(C)=O)cc4F)C[C@@H]3C2)NC(c2nccs2)=N[C@H]1c1ccc(F)cc1Cl [Example 32, (R)-methyl 6-(((S)-2-(4-acetyl-2fluorophenyl)-3-oxohexahydroimidazo[1,5-a]pyrazin-7(1H)-yl)methyl)-4-(2-chloro-4-fluorophenyl)-2-(thiazol-2-yl)-1,4-dihydropyrimidine-5-carboxylate]
CC50 at 4 days [1]: > 150000 nM
pEC50 (HBV [2]; Hepatitis B virus): 8.22

COC(=O)CCc1ccc(N2C[C@@H]3CN(CC4=C(C(=O)OC)[C@H](c5ccc(F)cc5Cl)N=C(c5nccs5)N4)CCN3C2=O)cc1 [Example 25, (R)-methyl 4-(2-chloro-4-fluorophenyl)-6-(((S)-2-(4-(3-methoxy-3-oxopropyl)phenyl)-3-oxohexahydroimidazo[1,5-a]pyrazin-7(1H)-yl)methyl)-2-(thiazol-2-yl)-1,4-dihydropyrimidine-5-carboxylate]
CC50 at 4 days [1]: > 150000 nM
pEC50 (HBV [2]; Hepatitis B virus): 8.30

COC(=O)C1=C(CN2CCN3C(=O)N(c4ccc(CC(C)C(=O)O)cc4)C[C@@H]3C2)NC(c2nccs2)=N[C@H]1c1ccc(F)cc1Cl (stereo partly drawn) [Example 18, 3-(4-((S)-7-(((R)-6-(2-chloro-4-fluorophenyl)-5-(methoxycarbonyl)-2-(thiazol-2-yl)-3,6-dihydropyrimidin-4-yl)methyl)-3-oxohexahydroimidazo[1,5-a]pyrazin-2(3H)-yl)phenyl)-2-methylpropionic Acid]
CC50 at 4 days [1]: > 150000 nM
pEC50 (HBV [2]; Hepatitis B virus): 8.40

CCOC(=O)C1=C(CN2CCN3C(=O)N(c4nc(CCC(=O)O)cs4)C[C@@H]3C2)NC(c2nccs2)=N[C@H]1c1ccc(F)cc1Br [Example 30]
CC50 (HepG2.2.15 cells): 133000 nM
pEC50 (HBV [2]): 7.92

COC(=O)C1=C(CN2CCN3C(=O)N(c4ccc(CCC(=O)O)cc4)C[C@@H]3[C@H]2CO)NC(c2nccs2)=N[C@H]1c1ccc(F)cc1Cl [Example 59B]
CC50 at 4 days [1]: > 150000 nM
pEC50 (HBV [2]; Hepatitis B virus): 7.82

COC(=O)C1=C(CN2CCN3C(=O)N(c4ccc(CCCNS(C)(=O)=O)cc4)C[C@@H]3C2)NC(c2nccs2)=N[C@H]1c1ccc(F)cc1Cl [Example 49, (R)-methyl 4-(2-chloro-4-fluorophenyl)-6-(((S)-2-(4-(3-(methylsulfonylamino)propyl)phenyl)-3-oxohexahydroimidazo[1,5-a]pyrazin-7(1H)-yl)methyl)-2-(thiazol-2-yl)-1,4-dihydropyrimidin-5-carboxylate]
CC50 at 4 days [1]: > 150000 nM
pEC50 (HBV [2]; Hepatitis B virus): 7.92

CCOC(=O)C1=C(CN2CCN3C(=O)N(c4ccc(CCC(=O)O)cc4)C[C@@H]3C2)NC(c2nccs2)=N[C@H]1c1ccc(F)cc1Br [Example 22, 3-(4-((S)-7-(((R)-6-(2-bromo-4-fluorophenyl)-5-(ethoxycarbonyl)-2-(thiazol-2-yl)-3,6-dihydropyrimidin-4-yl)methyl)-3-oxohexahydroimidazo[1,5-a]pyrazin-2(3H)-yl)phenyl)prop ionic Acid]
CC50 at 4 days [1]: > 150000 nM
pEC50 (HBV [2]; Hepatitis B virus): 8.30

— patent US11261190B2, “Dihydropyrimidine compounds and uses thereof in medicine” (SUNSHINE LAKE PHARMA CO., LTD., priority 2017, dated 2022)
